In one series the test system is H1975. The experiment in a line: MTS cell proliferation / survival assay. In kind it is cell-based. Particulars: Homo sapiens; for inhibition at 10 µM: NCI-H1975, read-out: Inhibition rate at 10 μM (%); for inhibition at 30 µM: NCI-H1975, read-out: Inhibition rate at 30 μM (%). The procedure:
Sk-Br3 (Korean cell line bank), a breast cancer cell, and H1975 cell (ATCC), a nonsmall cell lung cancer, were cultured in RPMI 1640 containing 25 mM HEPES (4-(2-hydroxyethyl)-1-piperazineethanesulfonic acid) and RPMI 1640 containing L-glutamine (containing streptomycin ([…]), penicillin (100 units/mL) and 10% fetal bovine serum (FBS)).
The cells were cultured under a humidified atmosphere of 37° C. and 5% CO2.
Next, non-metastatic lung cancer cells were treated with Compound 17 and the cell proliferation rate or cell survival rate was measured by MTS [3-(4,5-dimethylthiazol-2-yl)-5-(3-carboxymethoxyphenyl)-2-2H-tetrazolium, inner salt] analysis.
Cells were dispensed in 96-well plates at 3000 cell/well (Sk-Br3) and 2000 cell/well (H1975), and 100 μL of the medium was added per well and then was incubated overnight.
Cell proliferation was evaluated using the Promega Cell Titer 96 Aqueous One Solution cell proliferation assay.
After compound and cell culture, 20 μL of assay substrate solution was added to each well and incubated at 37° C. for an additional 1 hour.
Cell proliferation was confirmed by measuring the absorbance at 490 nm using a microplate reader (Tecan Infinite F200 Proplate reader).

A further series in a line: LogP. In kind it is physicochemical. The settings on record: called measured values of LogP. The procedure: All experimental data were analyzed using Prism software (version 5.0, Graphpad Software, San Diego, Calif.). In addition, tPSA (Topological Polar Surface Area) calculated using Chemdraw software and the measured values of LogP are shown in Tables 1 and 2 below.

The test system of another series is H1975 cells. The experiment in a line: MTS cell viability in H1975 cells resistant to Gefitinib. Format: cell-based. The settings on record: read-out: H1975 (EC50; μM). The procedure:
To confirm the cell viability according to the concentration of the compound synthesized in H1975 cells (ATCC) resistant to Gefitinib, MTS [3-(4,5-dimethylthiazol-2-yl)-5-[…]carboxymethoxyphenyl)-2-(4-sulfophenyl)-2H-tetrazolium, inner salt] analysis was performed. When the cells were cultured so as to occupy 80% of the bottom of the culture dish, the cells were detached and diluted with RPMI 1640 medium to a concentration of 1.5×10^3 cells/well. Each 100 μL of the suspension was added to each well of a 96-well plate and cultured for 14 hours. Then, the medium was changed to the culture solution treated with compound of each concentration each concentration (1a-g: 0, 1, 5, 10, 30, 50 or 100 μM, 14a-I, 16a, b, 21a-f: 0, 0.01, 0.1, 1, 5, 10, 30, 50, 70 or 100 μM), and cultured for 3 days. Each 20 μL of the MTS solution was dispensed into each well and reacted for 1 hour at 37° C. in an incubator supplied with 5% CO2.

The target in a further series is HSP90α (Homo sapiens (Human), UniProt P07900). The series can be described thus: Fluorescence polarization assay, binding ability to HSP90, benzamide compounds. Particulars: GA-FITC 100 nM; read-out: HSP90 FP) (IC50; nM). The procedure: 1 M dithiothreitol (DTT), 10 mg/m: BGG (bovine gamma globulin) were added to hexafluorobenzene (HFB) buffer (20 mM HEPES pH 7.3, 50 mM KCl, 5 mM MgCl2, 20 mM Na2MoO4, 0.01% NP4O, 3rd distilled water) and mixed. Then, 100 nM […] (GA)-FITC (Fluorescein isothiocyanate) was added and reacted at room temperature for 10 minutes. Each 100 μL of the mixture was dispensed into the control wells of a 96-well plate, 2 μL of HSP90α was added to the remaining mixture, and each 100 μL of the other wells was dispensed. […] The binding ability of the compound to HSP90 was expressed as mP (millipolarization unit=1000 mP unit).
A general note: Polarisation of emitted light reports the rotation of a fluorescent probe.

Read-outs that look alike come from different tables or passages of the source.

Regarding `O=C(c1cc(Cl)c(O)cc1O)N1CCOCC1` [Compound 11c, (5-chloro-2,4-dihydroxyphenyl) (morpholino)methanone], in the series on H1975, the inhibition (in general, the change of the read-out against control, counted positive when it falls) at 10 µM is 24.3% and the inhibition at 30 µM came out at 44%. Besides, in the series “LogP”, the logP (in general, the decadic logarithm of the partition coefficient of the neutral form, usually between octanol and water) was found to be 0.66.
Regarding `O=C(c1cc(Cl)c(O)cc1O)N1CCCCC1` [Compound 11b, (5-chloro-2,4-dihydroxyphenyl) (piperidin-1-yl)methanone], in the series with H1975, the inhibition at 10 µM is 7.6% and the inhibition at 30 µM was 26.3%. Also, the logP in “LogP” was 1.69.
For `CC(=O)N1CCN(C(=O)c2cc(Cl)c(O)cc2O)CC1` [Compound 11f, 1-(4-(5-chloro-2,4-dihydroxybenzoyl)piperazin-1-yl)ethanone], in that order: 0%, 10.5% and 0.25.
Turning to `O=C(NCc1ccccc1)c1cc(Cl)c(O)cc1O` [Compound 14a, N-Benzyl-5-chloro-2,4-dihydroxybenzamide], the EC50 (commonly the concentration needed to bring the measured effect to its halfway point) in the series with H1975 cells (Homo sapiens, NCI-H1975, 72 h) worked out at 86.2 µM.
As for `CNC(=O)c1ccc(CN(C)C(=O)c2cc(C(C)C)c(O)cc2O)cc1` [Compound 21d, 2,4-dihydroxy-5-isopropyl-N-methyl-N-(4-(methylcarbamoyl)benzyl) benzamide], on HSP90α, the half-maximal inhibitory concentration (IC50) (usually the midpoint of a concentration-inhibition curve) is 11.4 nM. The EC50 in the series on H1975 cells (H1975, 3 days) was 0.83 µM.
For `CCNC(=O)c1ccc(CN(C)C(=O)c2cc(Cl)c(O)cc2O)cc1` [Compound 21b, 5-chloro-N-(4-(ethylcarbamoyl)benzyl)-2,4-dihydroxy-N-methylbenzamide], the IC50 at HSP90α is 612 nM. Further, the EC50 with H1975 cells (Homo sapiens, NCI-H1975, 72 h) is 21.7 µM.
`COc1cc(CN(C)C(=O)c2cc(Cl)c(O)cc2O)cc(OC)c1OC` [Compound 14f, 5-chloro-2,4-dihydroxy-N-methyl-N-(3,4,5-trimethoxybenzyl) benzamide]: the IC50 on HSP90α was 1460 nM. Moreover, the EC50 in the series with H1975 cells (H1975, 3 days) was 73.1 µM.
Regarding `Cc1cccc(CN(C)C(=O)c2cc(Cl)c(O)cc2O)c1` [Compound 14i, 5-chloro-2,4-dihydroxy-N-methyl-N-(3-methylbenzyl)benzamide], the EC50 with H1975 cells (Homo sapiens, NCI-H1975, 72 h) came out at 47.5 µM.
With `CN(Cc1ccccc1)C(=O)c1cc(Cl)c(O)cc1O` [Compound 14b, N-Benzyl-5-chloro-2,4-dihydroxy-N-methylbenzamide], on HSP90α, the IC50 was 413 nM. Moreover, the 50% effective concentration (EC50) in the series with H1975 cells (Homo sapiens, NCI-H1975, 72 h) was found to be 35.5 µM.
With `O=C1CN(C(=O)c2cc(Cl)c(O)cc2O)CCN1` [Compound 11g, 4-(5-chloro-2,4-dihydroxybenzoyl)piperazin-2-one], in the series with H1975, the inhibition at 10 µM worked out at 0% and the inhibition at 30 µM was found to be 0%. In addition, in the series “LogP”, the logP was determined as 0.45.
Consider `O=C1CCN(C(=O)c2cc(Cl)c(O)cc2O)C1` [Compound 11h, 1-(5-chloro-2,4-dihydroxybenzoyl) pyrrolidin-3-one], for which, in the series with H1975, the inhibition at 10 µM was determined as 0% and the inhibition at 30 µM was found to be 0%. Further, the log partition coefficient (logP) in “LogP” is 0.84.
Take `O=C(c1cc(Cl)c(O)cc1O)N1CCCC1` [Compound 11a, (5-chloro-2,4-dihydroxyphenyl) (pyrrolidin-1-yl)methanone]: in the series on H1975, the inhibition at 10 µM worked out at 8.1% and the inhibition at 30 µM worked out at 22.1%. The logP in “LogP” was 1.13.
Turning to `COc1ccc(CN(C)C(=O)c2cc(Cl)c(O)cc2O)cc1` [Compound 14c, 5-chloro-2,4-dihydroxy-N-(4-methoxybenzyl)-N-methylbenzamide], the IC50 on HSP90α was 135 nM. Moreover, the half-maximal effective concentration (EC50) with H1975 cells (Homo sapiens, NCI-H1975, 72 h) was found to be 16.7 µM.
Take `CN1CCN(C(=O)c2cc(Cl)c(O)cc2O)C(c2ccccc2)C1` (centres unmarked) [Compound 11j, (5-chloro-2,4-dihydroxyphenyl)(4-methyl-2-phenylpiperazin-1-yl)methanone]: in the series “LogP”, the log partition coefficient (logP) is 3.22.
As for `Cc1ccc(CN(C)C(=O)c2cc(Cl)c(O)cc2O)cc1` [Compound 16b, 5-chloro-2,4-dihydroxy-N-methyl-N-(4-methylbenzyl)benzamide], the IC50 at HSP90α was 558 nM. In addition, the EC50 in the series with H1975 cells (Homo sapiens, NCI-H1975, 72 h) stood at 34.3 µM.
Take `CC(C)c1cc(C(=O)N(C)Cc2ccccc2)c(O)cc1O` [Compound 21g, N-benzyl-2,4-dihydroxy-5-isopropyl-N-methylbenzamide]: in the series on H1975 cells (Homo sapiens, NCI-H1975, 72 h), the EC50 worked out at 4.1 µM.
Turning to `CNC(=O)c1ccc(CN(C)C(=O)c2cc(Cl)c(O)cc2O)cc1` [Compound 21a, 5-chloro-2,4-dihydroxy-N-methyl-N-(4-(methylcarbamoyl)benzyl) benzamide], the IC50 at HSP90α was 496 nM. Further, in the series on H1975 cells (H1975, 3 days), the EC50 turned out to be 34.8 µM.
Consider `Cc1ccccc1CN(C)C(=O)c1cc(Cl)c(O)cc1O` [Compound 16a, 5-chloro-2,4-dihydroxy-N-methyl-N-(2-methylbenzyl)benzamide], for which the EC50 in the series on H1975 cells (Homo sapiens, NCI-H1975, 72 h) was determined as 49.3 µM.
Consider `COc1cc(CN(C)C(=O)c2cc(Cl)c(O)cc2O)c(Br)c(OC)c1OC` [Compound 14h, N-(2-bromo-3,4,5-trimethoxybenzyl)-5-chloro-2,4-dihydroxy-N-methylbenzamide], for which the IC50 on HSP90α came out at 528 nM. Moreover, the EC50 in the series with H1975 cells (Homo sapiens, NCI-H1975, 72 h) is 34.3 µM.
On to `O=C1CCN(C(=O)c2cc(Cl)c(O)cc2O)CC1` [Compound 11i, 1-(5-chloro-2,4-dihydroxybenzoyl)piperidin-4-one], for which the logP in the series “LogP” worked out at 0.6.
Take `CCCNC(=O)c1ccc(CN(C)C(=O)c2cc(Cl)c(O)cc2O)cc1` [Compound 21c, 5-chloro-2,4-dihydroxy-N-methyl-N-(4-(propylcarbamoyl)benzyl)benzamide]: the IC50 at HSP90α worked out at 454 nM. In the series with H1975 cells (Homo sapiens, NCI-H1975, 72 h), the concentration giving a half-maximal response (EC50) came out at 20.8 µM.
For `CCNC(=O)c1ccc(CN(C)C(=O)c2cc(C(C)C)c(O)cc2O)cc1` [Compound 21e, N-(4-(ethylcarbamoyl)benzyl)-2,4-dihydroxy-5-isopropyl-N-methylbenzamide], in that order: 6.5 nM and 0.46 µM.
On the same counts, the results for `COc1cc(CN(C)C(=O)c2cc(Cl)c(O)cc2O)c(Cl)c(OC)c1OC` [Compound 14g, 5-chloro-N-(2-chloro-3,4,5-trimethoxybenzyl)-2,4-dihydroxy-N-methylbenzamide] are 429 nM and 33.8 µM.
On the same counts, the results for `COc1ccc(CN(C)C(=O)c2cc(Cl)c(O)cc2O)cc1OC` [Compound 14d, 5-chloro-N-(3,4-dimethoxybenzyl)-2,4-dihydroxy-N-methylbenzamide] are 362 nM and 33.4 µM.
With `CN1CCN(C(=O)c2cc(Cl)c(O)cc2O)CC1` [Compound 11e, (5-chloro-2,4-dihydroxyphenyl)(4-methylpiperazin-1-yl)methanone], in the series with H1975, the inhibition at 10 µM was 26.3% and the inhibition at 30 µM amounted to 48.7%. The same molecule yielded a logP in “LogP” of 1.23.
Consider `CN(Cc1ccc2c(c1)OCO2)C(=O)c1cc(Cl)c(O)cc1O` [Compound 14e, N-(benzo[d][1,3]dioxol-5-ylmethyl)-5-chloro-2,4-dihydroxy-N-methylbenzamide], for which, on HSP90α, the IC50 was found to be 585 nM. Moreover, the EC50 in the series with H1975 cells (Homo sapiens, NCI-H1975, 72 h) worked out at 103 µM.
`O=C(c1cc(Cl)c(O)cc1O)N1CCNCC1` [Compound 11d, (5-chloro-2,4-dihydroxyphenyl) (piperazin-1-yl)methanone]: in the series with H1975, the inhibition at 10 µM is 0% and the inhibition at 30 µM was determined as 0%. This molecule registered a logP in the series “LogP” of 0.65.

The values above are taken from patent publication US10464907B2, “Compound having HSP90 inhibitory activity or pharmaceutically acceptable salt thereof, and medical use thereof” (priority 2016, dated 2019).
